Laboratory results reported in patent US20240350522A1, “HYGROMYCIN A FOR TREATMENT OF DISEASES AND INFECTIONS” (FLIGHTPATH BIOSCIENCES, INC., priority 2021, published 2024).
“And” between values parts separate entries of the source, which are not always exact repeats. Equal values may be shown once.

What was measured:
Type in all cases: cell-based
[1] = test system: Treponema pallidum pallidum SS14 strain; experiment: Treated treponemes seeded onto no-antibiotic plate, 7 more days, T47 qPCR (treponemicidal activity)
[2] = test system: Treponema pallidum pallidum SS14 strain; experiment: T. pallidum susceptibility assay, co-culture with Sf1Ep cells, tp0574 (T47) qPCR after 7 days; conditions: penicillin 60 ng/ml, 7 days
[3] = test system: Treponema pallidum pallidum Chicago strain; experiment: as above; conditions: penicillin 60 ng/ml, 7 days
[4] = test system: Treponema pallidum pallidum Chicago strain; experiment: Treated treponemes seeded onto no-antibiotic plate, 7 more days, T47 qPCR (treponemicidal activity)
[5] = pre-treated with penicillin 60 ng/ml, seeded on no antibiotic plate, average
[6] = pre-treated with penicillin 60 ng/ml, seeded on no antibiotic plate, replicate wells

## CC1(C)S[C@@H]2[C@H](NC(=O)Cc3ccccc3)C(=O)N2[C@H]1C(=O)O [Pen., penicillin G, reference compound]
[1]; SS14 strain, 60 ng/ml
  treponemicidal activity in words: treponemicidal
[1]; [5]
  Mean T47 copies/μL, Avg.: 18 copies/μL
[1]; [6]
  Mean T47 copies/μL, Expt. values: 21 copies/μL (2×) and 17 copies/μL and 24 copies/μL and 10 copies/μL and 13 copies/μL and 27 copies/μL and 15 copies/μL
[2]; average of 8 replicates
  Mean T47 copies/μL, Average: 216 copies/μL
[2]; replicate wells
  Mean T47 copies/μL, experimental values: 189 copies/μL and 200 copies/μL and 166 copies/μL and 282 copies/μL and 184 copies/μL and 223 copies/μL and 214 copies/μL and 271 copies/μL
[3]; average of 8 replicates
  Mean T47 copies/μL, Avg.: 252 copies/μL
[3]; replicate wells
  Mean T47 copies/μL, experimental values: 294 copies/μL and 226 copies/μL and 304 copies/μL and 137 copies/μL and 328 copies/μL and 261 copies/μL and 222 copies/μL and 241 copies/μL
[4]; Chicago strain, 60 ng/ml
  treponemicidal activity in words: treponemicidal
[4]; [5]
  Mean T47 copies/μL, Avg.: 26 copies/μL
[4]; [6]
  Mean T47 copies/μL, Expt. values: 12 copies/μL (2×) and 41 copies/μL and 74 copies/μL and 22 copies/μL (2×) and 15 copies/μL and 11 copies/μL
